# According to US20230065953A1, “NOVEL HETEROARYL-TRIAZOLE COMPOUNDS AS PESTICIDES” (Bayer Aktiengesellschaft, priority 2019, published 2023):
# Key:
# Assay type in all cases: in vivo
# [1] = tested on: adult flies Musca domestica strain WHO-N; experiment: Musca domestica test (MUSCDO surface treatment & contact assay); settings: 24 hours after contact, read-out: efficacy (mortality)
# Procedure, shortened: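 Compound in acetone at 2 mg/ml with 2000 ppm RME pipetted onto glazed tile; after acetone evaporates, adult WHO-N flies exposed on dried surface for 30 min. Percent mortality scored 24 h after contact.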
# [2] = tested on: Rhipicephalus microplus larvae (strain Parkhurst, resistant against synthetic pyrethroids); experiment: Rhipicephalus (Boophilus) microplus in-vitro contact test, larval cattle tick; settings: 5 μg/cm^2 (=500 g/ha), after 48 hours, read-out: efficacy (larvae dead or moribund)
# Procedure, shortened: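 Larvae (20–50 per tube) were exposed for 48 h at 27 °C and 85% relative humidity to dried acetone residues lining glass tubes, where 900 ppm corresponds to 5 μg/cm^2. Loss of negative geotaxis defined dead or moribund larvae, expressed as percent efficacy.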
# [3] = tested on: green peach aphid (Myzus persicae); experiment: Myzus persicae oral test; settings: 120 h
# Procedure, shortened: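 Compound was dissolved in acetone, diluted with water and mixed into IPL41 insect medium with sugar under a parafilm seal. A mixed aphid population fed through the parafilm, and mortality (%) was scored after 5 days.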
# [4] = tested on: adult engorged female ticks (Rhipicephalus microplus); experiment: Rhipicephalus (Boophilus) microplus injection test; settings: 168 h, 4 μg/animal, egg deposition after 7 days, read-out: efficacy (infertile eggs)
# Procedure, shortened: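 Five adult engorged female ticks each injected into the abdomen with 1 μL of compound in DMSO, then kept in a climate chamber. Fertile egg deposition assessed after 7 days, with unclear eggs held until hatching around 42 days; efficacy 100% means all eggs infertile, 0% all fertile.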
# [5] = tested on: adult brown dog ticks (Rhipicephalus sanguineus); experiment: Rhipicephalus sanguineus in-vitro contact test with adult brown dog ticks; settings: 5 μg/cm^2 (=500 g/ha), after 48 hours, read-out: efficacy (ticks dead or moribund)
# Procedure, shortened: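 Acetone solution (900 ppm giving 5 μg/cm²) coated on inner walls of glass tubes; after drying, 5-10 adult ticks added and held at room temperature 48 h. Ticks then placed on 45-50 °C plate ≤5 min; those unable to climb away scored dead/moribund, efficacy as % affected.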
# [6] = tested on: adult mosquitoes Aedes aegypti strain MONHEIM; experiment: Aedes aegypti test (AEDSAE surface treatment & contact assay); settings: surface concentration 20 mg/m^2, 30 min exposure, 24 hours after contact, read-out: efficacy (mortality)
# Procedure, shortened: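 Test compound in acetone (2 mg/ml) with 2000 ppm rapeseed oil methyl ester was dried onto a glazed tile. Adult Aedes aegypti MONHEIM were exposed to the treated surface for 30 minutes. Percent mortality was scored 24 hours after contact.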
# [7] = tested on: cattle ticks (Rhipicephalus microplus) strain Parkhurst, SP-resistant; experiment: Rhipicephalus (Boophilus) microplus dip test; settings: 100 ppm, egg deposition after 7 days
# Procedure: Rhipicephalus (Boophilus) Microplus—Dip Test
# Test animal: cattle ticks (Rhipicephalus microplus) strain Parkhurst, SP-resistant
# Solvent: dimethyl sulfoxide
# To produce a suitable preparation of active compound, 10 mg of active compound are dissolved in 0.5 mL solvent, and the concentrate is diluted with water to the desired concentration.
# This compound solution is pipetted into tubes. 8-10 engorged, adult, female cattle ticks (Rhipicephalus microplus) are placed in perforated tubes. These tubes are immersed in the aqueous compound solution until the ticks are completely moistened. After the liquid has drained off, the ticks are transferred to a filter paper in a plastic tray and stored in a climate chamber.
# After 7 days egg deposition of fertile eggs is monitored. Eggs where fertility is not visible are stored in a climate chamber till hatching after about 42 days. An efficacy of 100% means all eggs are infertile; 0% means all eggs are fertile.
# [8] = tested on: larvae of the banded cucumber beetle (Diabrotica balteata); experiment: Diabrotica balteata spray test; settings: 168 h, 100 g/ha (=32 μg/well), wheat seeds, after 7 days, read-out: efficacy (seedling growth)
# Procedure, shortened: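 Wheat seeds germinated 1 day on agar were sprayed with compound in acetone/dimethylformamide with alkylarylpolyglycol ether emulsifier, diluted in emulsifier-containing water. Each unit then received 10-20 larvae, and % efficacy was scored after 7 days.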
# [9] = tested on: fall armyworm larvae (Spodoptera frugiperda); experiment: Spodoptera frugiperda spray test (maize leaf sections); settings: 168 h
# Procedure, shortened: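 Maize leaf sections sprayed with compound in acetone/dimethylformamide, diluted in water with 1000 ppm alkylarylpolyglycol ether emulsifier. Dried sections infested with fall armyworm larvae. Mortality (%) scored after 7 days; 100% = all caterpillars killed.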
# [10] = tested on: adult unfed cat fleas (Ctenocephalides felis); experiment: Ctenocephalides felis oral test; settings: 48 h
# Procedure, shortened: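 About 20 adult unfed fleas fed through parafilm on cattle blood containing compound (DMSO stock diluted in blood), blood held at 37 °C and fleas at room temperature. Mortality (%) scored after 2 days.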
# [11] = tested on: larvae of the southern green stink bug (Nezara viridula); experiment: Nezara viridula spray test; settings: in Hordeum vulgare, 96 h
# Procedure, shortened: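 Barley plants sprayed with compound in acetone/dimethylformamide, diluted in water with 1000 ppm alkylarylpolyglycol ether emulsifier, then infested with Nezara viridula larvae. Percent mortality read after 4 days (100% = all killed, 0% = none).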
# [12] = tested on: larvae of the southern green stink bug (Nezara viridula); experiment: Nezara viridula spray test (NEZAVI), comparison; settings: 96 h, 500 g ai/ha, 4 dat, read-out: % Efficacy
# Procedure: Nezara viridula—Spray Test (NEZAVI) • Solvent: 78.0 parts by weight of acetone • 1.5 parts by weight of dimethylformamide • Emulsifier: alkylarylpolyglycol ether
# (§1) To produce a suitable preparation of active compound, 1 part by weight of active compound is mixed with the stated amount of solvent, and the concentrate is diluted with water, containing an emulsifier concentration of 1000 ppm, to the desired concentration. Further test concentrations are prepared by dilution with emulsifier containing water.
# Barley plants (Hordeum vulgare) are sprayed with a test solution containing the desired concentration of the active ingredient and are infested with larvae of the southern green stink bug (Nezara viridula).
# After the specified period of time, mortality in % is determined in comparison to the untreated control plant. 100% means all the stink bugs have been killed; 0% means none of the stink bugs have been killed.
# [13] = tested on: fall armyworm larvae (Spodoptera frugiperda); experiment: Spodoptera frugiperda spray test (SPODFR, maize leaf sections), comparison; settings: 168 h, 7 dat, read-out: % Efficacy
# Procedure: Spodoptera fruaiperda—Spray Test (SPODFR) • Solvent: 78.0 parts by weight acetone • 1.5 parts by weight dimethylformamide • Emulsifier: alkylarylpolyglycol ether
# as §1, with “solvents” for “solvent,”, “and” for “and the concentrate”
# Maize (Zea mays) leaf sections are sprayed with a preparation of the active ingredient of the desired concentration. Once dry, the leaf sections are infested with fall armyworm larvae (Spodoptera frugiperda).
# After the specified period of time, mortality in % is determined in comparison to the untreated control plant. 100% means all caterpillars have been killed and 0% means none of the caterpillars have been killed.
# [14] = tested on: larvae of the diamondback moth (Plutella xylostella); experiment: Plutella xylostella spray test (PLUTMA), comparison; settings: 168 h, 7 dat, read-out: % Efficacy
# Procedure: Plutella xylostella—spray test (PLUTMA) • Solvent: 14 parts by weight of dimethylformamide • Emulsifier: alkylaryl polyglycol ether
# as §1, with “solvent” for “solvent,”, “and” for “and the concentrate”, “water. Ammonium salt and/or penetration enhancer in a dosage of 1000 ppm are added to the desired concentration if necessary.” for “water.”
# Cabbage leaves (Brassica oleracea) are treated by being sprayed with the preparation of the active compound of the desired concentration and are infested with larvae of the diamondback moth (Plutella xylostella).
# After the specified period of time, mortality in % is determined. 100% means all the caterpillars have been killed and 0% means none of the caterpillars have been killed.
# [15] = tested on: caterpillars of the fall army worm (Spodoptera frugiperda); experiment: Spodoptera frugiperda spray test (SPODFR, cotton leaves), comparison; settings: 168 h, 7 dat, read-out: % Efficacy
# Procedure: Spodoptera fruaiperda—Spray Test (SPODFR) • Solvent: 14 parts by weight of dimethylformamide • Emulsifier: alkylaryl polyglycol ether
# as §1, with “solvent” for “solvent,”, “and” for “and the concentrate”, “water. Ammonium salt and/or penetration enhancer in a dosage of 1000 ppm are added to the desired concentration if necessary.” for “water.”
# (§2) Cotton leaves (Gossypium hirsutum) are treated by being sprayed with the preparation of the active compound of the desired concentration and are infested with caterpillars of the fall army worm (Spodoptera frugiperda).
# After the specified period of time mortality in % is determined. 100% means all the caterpillars have been killed and 0% means none of the caterpillars have been killed.
# [16] = tested on: caterpillars of the fall army worm (Spodoptera frugiperda); experiment: Spodoptera frugiperda spray test (cotton leaves); settings: 168 h, after 7 days
# Procedure: Spodoptera frugiperda—spray test • Solvent: 14 parts by weight of dimethylformamide • Emulsifier: alkylaryl polyglycol ether
# as §1, with “solvent” for “solvent,”, “and” for “and the concentrate”, “water. Ammonium salt and/or penetration enhancer in a dosage of 1000 ppm are added to the desired concentration if necessary.” for “water.”
# as §2
# After 7 days mortality in % is determined. 100% means all the caterpillars have been killed and 0% means none of the caterpillars have been killed.
# [17] = tested on: adult cat fleas (Ctenocephalides felis); experiment: Ctenocephalides felis in-vitro contact test, adult cat flea; settings: 5 μg/cm^2 (=500 g/ha), after 48 hours
# Procedure, shortened: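 Acetone solutions of compound were coated onto inner walls of glass tubes (900 ppm giving 5 μg/cm^2) and dried; 5-10 adult C. felis were then held 48 h at room temperature. Efficacy = % fleas dead or moribund, judged by inability to escape a 45-50° C heating plate within 5 min.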
Compound,pest or weed control at 5 µg/cm2 [2],"pest or weed control at 5 µg/cm2, 500 g/ha [5]","pest or weed control at 32 µg/disc, 100 g/ha [8]",mortality at 100 g/ha [9],stink bug mortality at 500 g/ha [12],mortality at 20 ppm [16],efficacy (fleas dead or moribund) [17],other results
Cc1nc([C@H](C)NC(=O)c2cc(Br)cc(C(F)(F)F)c2)n(-c2ncc(C#N)s2)n1 [I-14],100%,100%,100%,100%,–,–,–,"mortality at 4 mg/m2 ([1]; surface concentration 4 mg/m^2, 30 min exposure): 90 to 100%; mortality at 20 mg/m2 ([1]; surface concentration 20 mg/m^2, 30 min exposure): 80 to 100%; mortality at 4 ppm [3]: 100%; pest or weed control at 0.004 mg [4]: 100%; mortality at 20 mg/m2 [6]: 80 to 100%; efficacy (infertile eggs) [7]: 100%; mortality at 100 ppm [10]: 100%"
C[C@H](NC(=O)c1cc(Cl)cc(S(=O)(=O)C(F)(F)F)c1)c1ncnn1-c1ncc(C#N)s1 [I-60],–,–,100%,100%,100%,–,–,mortality at 500 g/ha [11]: 100%; larval mortality at 20 g/ha ([13]; 20 g ai/ha): 100%; larval mortality at 100 g/ha ([13]; 100 g ai/ha): 100%
"C[C@H](NC(=O)c1cc(Cl)cc(S(=O)(=O)C(F)(F)F)c1)c1ncnn1-c1nccs1 [I-077, reference compound]",–,–,–,–,0%,–,–,Emax at 20 g/ha ([13]; 20 g ai/ha): 33%; Emax at 100 g/ha ([13]; 100 g ai/ha): 67%
C[C@H](NC(=O)c1cc(Cl)cc(C(F)(F)F)c1)c1ncnn1-c1ncc(C(F)(F)F)s1 [I-085],–,–,–,–,–,–,–,mortality at 20 ppm [14]: 40%; Emax at 4 ppm [15]: 20%
C[C@H](NC(=O)c1cc(OC(F)(F)F)cc(S(C)(=O)=O)c1)c1ncnn1-c1ncc(C#N)s1 [I-93],–,–,–,–,–,100%,–,–
C[C@H](NC(=O)c1cc(OC(F)F)cc(OC(F)F)c1)c1ncnn1-c1ncc(C#N)s1 [I-94],100%,100%,–,–,–,100%,100%,–
C[C@H](NC(=O)c1cc(Cl)cc(OC(F)(F)F)c1)c1ncnn1-c1ncc(C#N)s1 [I-96],–,–,–,–,–,100%,–,–
C[C@H](NC(=O)c1cc(C(F)F)cc(C(F)F)c1)c1ncnn1-c1ncc(C#N)s1 [I-97],100%,100%,–,–,–,100%,100%,–
C[C@H](NC(=O)c1cc(OC(F)(F)F)cc(C(F)F)c1)c1ncnn1-c1ncc(C#N)s1 [I-98],100%,100%,–,–,–,100%,100%,–
CNC(=O)c1cnc(-n2ncnc2[C@H](C)NC(=O)c2cc(Cl)cc(S(=O)(=O)C(F)(F)F)c2)s1 [I-110],–,–,100%,100%,100%,–,–,mortality at 100 g/ha [11]: 90%; mortality at 500 g/ha [11]: 100%; Emax at 20 g/ha ([13]; 20 g ai/ha): 67%; larval mortality at 100 g/ha ([13]; 100 g ai/ha): 100%
